Measured values from patent US20250044294A1, “COMPOSITION AND METHOD OF TREATING A CANCER THROUGH AFFECTING MEMBRANE RECEPTORS OF CANCER CELLS AND THEIR DERIVED EXTRACELLULAR VESICLES” (National Yang Ming Chiao Tung University, priority 2023, published 2025).
Where two headings read alike, the source gives them in different places.

Assays:
[1] = tested on: AKT activation; test: Western blotting of AKT activation in NSCLC cells (A549); assay type: cell-based, human; details: 15 μM 30 min, pre-treatment and post-treatment, EGF 10 ng/mL 15 min
Protocol: DMSO was used as a vehicle control. For EGF stimulation, cells were incubated with 10 ng/mL with continuous drugs treatment for 15 min at 37° C.
Cells or EVs were lysed in RIPA lysis buffer (containing 50 mM Tris-HCl, 1% NP-40, 150 mM NaCl, 0.1% SDS, 1 mM PMSF, 1 mM Na3VO4) with complete protease and protease inhibitor cocktail (1:1000) (Sigma-Aldrich). The protein quantitation is analyzed by comparing to 2 mg/ml Bovine serum albumin (BSA). Prepare the cell sample with one-tenth of dilution and the EV sample without dilution. Next, prepare all sample to 30 ul then put 10 μl each well in 96-well plates. Protein concentrations were then determined using the BCA assay kit (Thermo, USA) according to the manufacturer's instructions. Then, the same amounts of protein lysates from cells and EVs were loaded onto 8-12% SDS polyacrylamide gels and subjected to electrophoresis at 80-100 V, followed by transferring the proteins to 0.22 or 0.45 μm poly-vinylidene fluoride membranes (Millipore). The membranes were blocked with 5% skimmed milk in PBST (Tris-buffered saline containing Tween-20) for 1 h at room temperature and then washed 3 times (10 minutes for each time) with TBST (1M Tris-HCL pH7.5, NaCl, Tween 20 in ddH2O). […] The membrane was exposed using enhanced chemiluminescence reagents and analyzed using the Fujifilm LAS4000 luminescent image analysis system.

[2] = tested on: AKT activation; test: Western blotting of AKT activation in PDAC cells; assay type: cell-based, human; details: 20 μM, 6 hours
Protocol: Cells or EVs were lysed in RIPA lysis buffer (containing 50 mM Tris-HCl, 1% NP-40, 150 mM NaCl, 0.1% SDS, 1 mM PMSF, 1 mM Na3VO4) with complete protease and […] (1:1000) (Sigma-Aldrich). The protein quantitation is analyzed by comparing to 2 mg/ml Bovine serum albumin (BSA). Prepare the cell sample with one-tenth of dilution and the EV sample without dilution. Next, prepare all sample to 30 ul then put 10 μl each well in 96-well plates. Protein concentrations were then determined using the BCA assay kit (Thermo, USA) according to the manufacturer's instructions. Then, the same amounts of protein lysates from cells and EVs were loaded onto 8-12% SDS polyacrylamide gels and subjected to electrophoresis at 80-100 V, followed by transferring the proteins to 0.22 or 0.45 μm poly-vinylidene fluoride membranes (Millipore). The membranes were blocked with 5% skimmed milk in […] (Tris-buffered saline containing Tween-20) for 1 h at room temperature and then washed 3 times (10 minutes for each time) with TBST (1M Tris-HCL pH7.5, NaCl, Tween 20 in ddH2O). After the step of washing, probed with antibodies specific for EV-enriched markers at […] overnight. […] The membrane was exposed using enhanced chemiluminescence reagents and analyzed using the Fujifilm LAS4000 luminescent image analysis system. […]

[3] = target: T1, EGFR-HER2 protein-protein interactions (Homo sapiens, UniProt P00533+P04626); assay type: cell-based; details: HSC3 and SAS; pre-treatment 15 μM 30 min, then EGF 10 ng/mL 15 min
T1 construct: endogenous in cells; host or cells: HSC3 and SAS cells

[4] = target: T2, EGFR-MET protein-protein interactions (Homo sapiens, UniProt P00533+P08581); assay type: cell-based; details: HSC3; pre-treatment 15 μM 30 min, then EGF 10 ng/mL 15 min
T2 construct: endogenous in cells; host or cells: HSC3 cells

[5] = tested on: 3R-4 and 3R-5-1 tumoroids; test: Protein expression in pancreatic cancer patient-derived tumoroids (western blotting, immunofluorescence); assay type: cell-based, human; details: 72-hour treatment
[6] = tested on: PDAC cells (BxPC-3, PANC-1, AsPC-1); test: Transwell migration assay of PDAC cells; assay type: cell-based, human; details: compared to gemcitabine treatment
[7] = tested on: H6C7 cells and WI-38 cells; test: Co-culture cell migration with PDAC-derived secretomes; assay type: cell-based, human
Protocol: In the transwell migration assay, cells were seeded in upper chambers of Transwell plates (Transwell® Permeable Support, 6.5 mm insert, 24 well plate, 8.0 μm pore polyester membrane with sterile, Corning, #3464) in serum-free (SF) medium and seeded 5×10^4-1×10^5 cells per well, while lower chambers were added medium with 10% FBS as an attractant. Drugs were treated in both upper and lower chambers, and incubated on the 24-well plate at 37° C. for 16-24 hours. The cells were fix with 4% paraformaldehyde (PFA, SIGMA, #F8775) for 10 minutes and staining with 1% crystal violet (MERCK, 1 g Crystal violet powder dissolved in 75 ml ddH2O and 25 ml […] then filters by 0.45 μm filter) for 0.5 hours. After drying the insert completely, take at least 3 cell pictures randomly in every sample by microscope and count the number of cells by Image J.
To initiate this exploration, a transwell migration assay in vitro was performed to assess the migration ability of PDAC cells. […] To achieve this, a co-culture cell migration system was established to examine the behavioral changes in normal cells treated with PDAC-derived secretomes.
For the cell line selection, the H6C7 cell line, derived from normal human pancreatic duct epithelial (HPDE) cells and immortalized, was employed to investigate the interactions between PDAC cells and human pancreatic duct cells. This cell line serves as a valuable tool for studying the molecular and cellular interactions that occur between PDAC cells and their surrounding pancreatic ductal epithelial cells. Additionally, to simulate the lung tissue environment and validate PDAC cells with high metastatic potential to the lung, human lung fibroblasts known as WI-38 cells were chosen as a relative normal cell model. By utilizing this model, the interactions between PDAC cells and the lung microenvironment can be examined and assessed.

[8] = tested on: integrin α6/β4 on BxPC-3-derived EVs; test: Laminin coating wound healing assay with BxPC-3-derived EVs; assay type: cell-based, human; details: laminin coating 1 μg/cm^2; EVs from PCP-treated BxPC-3 cells
Protocol: The culture inserts (ibidi, #80209) was put on 6 well dishes (2 inserts for each well), irradiated UV for 20 minutes and cells were seeded into the well of the insert and incubating 24 hours. The insert was removed gently and washed twice with PBS to remove the old medium and cell and be observed the gap which was formed by the insert through the microscope and captured the picture of the gap at 0 hours. After I captured of the gap, different treatments were added and incubated for 16 hours. The result was observed by the microscope and quantified by Image J.
In this assay, H6C7 cells were seeded in the wound healing inserts with or without 1 μg/cm^2 laminin coating in the six-well plate. Once the cells were attached, the wound healing inserts were removed, and H6C7 cells were exposed to BxPC-3-derived EVs and PCP-treated BxPC-3 cell-derived EVs.

[9] = tested on: BEAS-2B and CL141 cells; test: Transwell cell migration with NSCLC-derived secretomes and EVs; assay type: cell-based, human
[10] = tested on: BxPC-3 cells; test: Laminin-induced cell proliferation (SRB); assay type: cell-based, human; details: 48 hours
[11] = tested on: integrin α6/β4; test: Western blotting of integrin α6/β4 on PDAC-derived EVs; assay type: cell-based, human; details: EVs derived from BxPC-3 and PANC-1 cells; short-term treatment
[12] = tested on: BxPC-3 cell-derived EVs; test: NanoFCM analysis of EV subpopulations from BxPC-3 cells; assay type: cell-based, human
Protocol: EV samples containing 3×10^9 particles were incubated with diluted antibodies (1:1000), including FITC-anti-CD9 antibodies, PE-anti-CD63 antibodies, and APC-anti-integrin β4 antibodies, for 30 minutes in a 37° C. water bath. Following the incubation period, an Amicon® Ultra Centrifugal Filter with a 100 kDa molecular weight cutoff (MWCO) was used and rinsed with 1× PBS buffer. The samples were centrifuged at 4000×g for 5 minutes, with the centrifugation process repeated three times. After centrifugation, the samples were retrieved and diluted 10-100 times for detecting the expression levels of EV surface proteins by NanoFCM. The results were analyzed using Kaluza Analysis Software.

[13] = target: T3, EGFR-p-EGFR protein-protein interactions (Homo sapiens, UniProt P00533); test: Proximity ligation assay in PDAC cells (BxPC-3); assay type: cell-based; set-up: endogenous in cells; details: pre-treatment 15 μM 30 min, then EGF 10 ng/mL 15 min
[14] = target: T3, EGFR-p-EGFR protein-protein interactions; assay type: cell-based; set-up: endogenous in cells; host or cells: HSC3 and SAS cells; details: HSC3 and SAS; pre-treatment 15 μM 30 min, then EGF 10 ng/mL 15 min
[15] = 3R-4 tumoroids, western blotting

T3 sequence (P00533 25-1210): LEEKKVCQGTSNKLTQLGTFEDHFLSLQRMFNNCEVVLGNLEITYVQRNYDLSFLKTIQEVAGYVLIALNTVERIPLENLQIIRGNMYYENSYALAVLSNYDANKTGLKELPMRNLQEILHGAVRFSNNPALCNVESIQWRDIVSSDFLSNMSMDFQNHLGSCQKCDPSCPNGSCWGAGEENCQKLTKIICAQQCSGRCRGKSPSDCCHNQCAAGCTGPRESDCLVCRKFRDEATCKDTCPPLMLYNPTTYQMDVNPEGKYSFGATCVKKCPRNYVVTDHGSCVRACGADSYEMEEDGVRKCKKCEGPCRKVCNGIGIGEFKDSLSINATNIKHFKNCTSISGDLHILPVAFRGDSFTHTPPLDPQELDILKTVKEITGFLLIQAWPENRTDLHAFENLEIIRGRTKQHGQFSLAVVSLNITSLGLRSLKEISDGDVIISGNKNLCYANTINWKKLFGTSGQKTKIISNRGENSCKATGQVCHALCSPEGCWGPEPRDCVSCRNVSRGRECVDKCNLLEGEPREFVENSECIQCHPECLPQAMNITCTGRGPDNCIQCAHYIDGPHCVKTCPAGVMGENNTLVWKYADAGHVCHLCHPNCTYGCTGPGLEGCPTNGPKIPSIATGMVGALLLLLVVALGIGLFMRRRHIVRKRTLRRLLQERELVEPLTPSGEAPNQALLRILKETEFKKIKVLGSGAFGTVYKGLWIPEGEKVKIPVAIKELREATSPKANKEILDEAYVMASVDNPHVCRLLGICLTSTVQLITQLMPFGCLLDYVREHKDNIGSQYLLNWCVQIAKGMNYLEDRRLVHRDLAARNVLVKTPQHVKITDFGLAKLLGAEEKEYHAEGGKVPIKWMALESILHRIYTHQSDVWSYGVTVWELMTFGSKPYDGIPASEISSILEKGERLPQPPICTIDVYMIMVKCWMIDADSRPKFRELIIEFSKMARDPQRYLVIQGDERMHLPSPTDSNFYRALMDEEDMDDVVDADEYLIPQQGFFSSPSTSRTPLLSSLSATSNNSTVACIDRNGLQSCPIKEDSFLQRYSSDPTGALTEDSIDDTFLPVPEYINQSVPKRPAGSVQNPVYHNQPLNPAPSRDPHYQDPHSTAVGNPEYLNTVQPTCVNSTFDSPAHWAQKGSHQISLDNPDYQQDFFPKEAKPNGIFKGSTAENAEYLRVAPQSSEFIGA
T1 sequence (P00533 25-1210): as above
T1 sequence (P04626 23-1255): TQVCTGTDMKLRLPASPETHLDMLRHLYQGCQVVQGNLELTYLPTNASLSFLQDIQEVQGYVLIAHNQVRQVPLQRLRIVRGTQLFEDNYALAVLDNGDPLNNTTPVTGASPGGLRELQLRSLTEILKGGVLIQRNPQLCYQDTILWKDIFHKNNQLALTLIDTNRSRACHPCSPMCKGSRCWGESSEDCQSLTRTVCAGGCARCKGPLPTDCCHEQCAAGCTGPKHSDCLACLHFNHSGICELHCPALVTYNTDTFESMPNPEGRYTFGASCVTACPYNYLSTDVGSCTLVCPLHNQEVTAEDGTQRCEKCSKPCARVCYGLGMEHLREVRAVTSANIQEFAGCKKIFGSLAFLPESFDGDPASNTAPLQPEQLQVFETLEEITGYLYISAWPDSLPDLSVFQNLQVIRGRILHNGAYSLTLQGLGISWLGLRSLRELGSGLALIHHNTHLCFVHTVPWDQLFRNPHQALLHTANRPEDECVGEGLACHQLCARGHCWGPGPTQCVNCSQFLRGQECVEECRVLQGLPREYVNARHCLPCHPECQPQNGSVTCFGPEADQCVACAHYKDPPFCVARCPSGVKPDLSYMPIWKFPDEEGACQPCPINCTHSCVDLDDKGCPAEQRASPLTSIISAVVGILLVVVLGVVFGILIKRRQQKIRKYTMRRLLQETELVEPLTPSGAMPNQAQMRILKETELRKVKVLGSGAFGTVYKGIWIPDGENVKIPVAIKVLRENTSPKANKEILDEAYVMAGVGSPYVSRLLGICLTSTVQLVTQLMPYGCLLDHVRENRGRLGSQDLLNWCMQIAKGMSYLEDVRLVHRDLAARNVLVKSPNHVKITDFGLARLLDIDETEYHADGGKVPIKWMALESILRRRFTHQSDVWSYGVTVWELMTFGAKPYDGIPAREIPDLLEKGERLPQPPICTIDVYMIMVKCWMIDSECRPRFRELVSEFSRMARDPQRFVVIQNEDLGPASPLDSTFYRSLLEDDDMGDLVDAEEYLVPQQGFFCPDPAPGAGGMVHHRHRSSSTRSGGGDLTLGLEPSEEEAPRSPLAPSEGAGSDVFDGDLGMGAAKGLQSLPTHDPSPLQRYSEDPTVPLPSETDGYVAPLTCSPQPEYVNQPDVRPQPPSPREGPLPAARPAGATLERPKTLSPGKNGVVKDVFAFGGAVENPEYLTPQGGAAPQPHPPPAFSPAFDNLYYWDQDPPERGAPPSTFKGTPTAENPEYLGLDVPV

CN1CCN(CCCN2c3ccccc3Sc3ccc(Cl)cc32)CC1 [PCP, Prochlorperazine]
AKT activation [1]: effectively suppressed AKT activation | AKT activation [2]: suppressed AKT activation | EGFR-HER2 protein-protein interactions [3]: could suppress EGFR-HER2 protein-protein interactions | EGFR-MET protein-protein interactions [4]: could suppress EGFR-MET protein-protein interactions | expression levels of CD9 and integrin β4 ([5]; 3R-4 and 3R-5-1 tumoroids, immunofluorescence): also inhibited the expression levels of CD9 and integrin β4 | expression levels of GPC1 [5, 15]: unchanged expression levels of GPC1 | expression levels of integrin α6/β4, CD9, EGFR, HER2, HER3 [5, 15]: inhibited the expression levels | migration ability of PDAC cells [6]: significantly suppressed | migratory capability of WI-38 cells ([7]; AsPC-1-derived secretomes): comparatively weaker effect | migratory capability of WI-38 cells ([7]; BxPC-3-derived secretomes): strongest inhibition | migratory capability of WI-38 cells ([7]; PANC-1-derived secretomes): least effect | migratory behavior of H6C7 cells ([7]; co-culture with BxPC-3-derived secretomes): significantly suppressed | functional activity of integrin α6/β4 on EVs (migration of H6C7 cells) [8]: significantly inhibited | migratory capability induced by NSCLC-derived secretomes ([9]; BEAS-2B and CL141, secretomes from H441 cells): inhibitory effect | migratory capability induced by NSCLC-derived EVs ([9]; treated cells with NSCLC-derived EVs): could downregulate this increased migratory capability | laminin-induced cell proliferation rate ([10]; 1 μg/cm^2 laminin): reversed the increased cell proliferation rate | drug sensitivity to PCP after laminin binding ([10]; compared to the vehicle group): significantly higher increase in drug sensitivity | integrin α6/β4 protein expression on EVs [11]: inhibited integrin α6/β4 protein expression | co-expression levels of CD9 and integrin β4 proteins on ITGB4+CD9+ EVs [12]: downregulated | secretion of CD9-EVs [12]: significantly downregulated | secretion of CD63-EVs [12]: upregulating | secretion of ITGB4+CD9+ EVs [12]: significantly suppressed | EGFR-p-EGFR protein-protein interactions [13]: could suppress | EGFR-p-EGFR protein-protein interactions [14]: could suppress EGFR-p-EGFR protein-protein interactions
